Reference: PubChem BioAssay AID200 (DTP/NCI, 2004)
Where “and” joins values, the source holds several entries; their conditions need not be identical. Equal entries are not always repeated. Toxic doses and inconclusive results are not listed.

Test system: B6C3F1 mice, B16 melanoma ip, median survival T/C
Assay: NCI In Vivo Anticancer Drug Screen. Data for tumor model B16 Melanoma (intraperitoneal) in B6C3F1 mice
Conditions: endpoint: median survival time, higher = longer survival
How it was run: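 Mice bearing transplanted tumor were dosed with compound or vehicle, and survival was recorded. Activity is expressed as the treated-group measurement (T) divided by the vehicle control measurement (C).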

## C[C@@]1(CO)[C@H](O)CC[C@@]2(C)[C@H]1CC[C@H]1C[C@@H]3C[C@@]12CC[C@@]3(O)COC(=O)CN
dose: 0.02 mg/kg/injection, schedule: Q01DX009 (ip), vehicle: saline + alcohol
  T/C: 98 % of control
dose: 0.37 mg/kg/injection, schedule: Q01DX009 (ip), vehicle: saline + alcohol
  T/C: 94 % of control
dose: 0.4 mg/kg/injection, schedule: Q01DX009 (ip), vehicle: saline + alcohol
  T/C: 102 % of control
dose: 0.75 mg/kg/injection, schedule: Q01DX009 (ip), vehicle: saline + alcohol
  T/C: 98 % of control
dose: 0.8 mg/kg/injection, schedule: Q01DX009 (ip), vehicle: saline + alcohol
  T/C: 124 % of control
dose: 1.5 mg/kg/injection, schedule: Q01DX009 (ip), vehicle: saline + alcohol
  T/C: 101 % of control
dose: 1.6 mg/kg/injection, schedule: Q01DX009 (ip), vehicle: saline + alcohol
  T/C: 101 % of control
dose: 1.7 mg/kg/injection, schedule: Q01DX005 (iv), vehicle: saline + alcohol
  T/C: 108 % of control
dose: 2.1 mg/kg/injection, schedule: Q01DX001 (iv), vehicle: saline + alcohol
  T/C: 111 % of control
dose: 2.1 mg/kg/injection, schedule: Q03HX008 (ip), vehicle: saline + alcohol
  T/C: 120 % of control
dose: 2.8 mg/kg/injection, schedule: Q03HX024 (ip), vehicle: saline + alcohol
  T/C: 97 % of control
dose: 3.0 mg/kg/injection, schedule: Q01DX009 (ip), vehicle: saline + alcohol
  T/C: 102 % of control
dose: 3.4 mg/kg/injection, schedule: Q01DX005 (iv), vehicle: saline + alcohol
  T/C: 99 % of control
dose: 4.2 mg/kg/injection, schedule: Q01DX001 (iv), vehicle: saline + alcohol
  T/C: 103 % of control
dose: 4.2 mg/kg/injection, schedule: Q03HX008 (ip), vehicle: saline + alcohol
  T/C: 119 % of control
dose: 5.0 mg/kg/injection, schedule: Q03HX027 (ip), vehicle: saline + alcohol
  T/C: 113 % of control and 105 % of control and 107 % of control
dose: 5.0 mg/kg/injection, schedule: Q03HX027 (sc), vehicle: saline + alcohol
  T/C: 109 % of control
dose: 5.6 mg/kg/injection, schedule: Q03HX024 (ip), vehicle: saline + alcohol
  T/C: 116 % of control
dose: 6.0 mg/kg/injection, schedule: Q01DX009 (ip), vehicle: saline + alcohol
  T/C: 93 % of control
dose: 6.75 mg/kg/injection, schedule: Q01DX005 (ip), vehicle: saline + alcohol
  T/C: 95 % of control
dose: 6.8 mg/kg/injection, schedule: Q01DX005 (iv), vehicle: saline + alcohol
  T/C: 96 % of control
dose: 8.4 mg/kg/injection, schedule: Q03HX008 (ip), vehicle: saline + alcohol
  T/C: 114 % of control
dose: 8.5 mg/kg/injection, schedule: Q01DX001 (iv), vehicle: saline + alcohol
  T/C: 109 % of control
dose: 10.0 mg/kg/injection, schedule: Q03HX027 (ip), vehicle: saline + alcohol
  T/C: 117 % of control and 123 % of control
dose: 10.0 mg/kg/injection, schedule: Q03HX027 (sc), vehicle: saline
  T/C: 102 % of control
dose: 12.5 mg/kg/injection, schedule: Q01DX009 (ip), vehicle: saline + alcohol
  T/C: 111 % of control and 120 % of control
dose: 13.5 mg/kg/injection, schedule: Q01DX005 (ip), vehicle: saline + alcohol
  T/C: 104 % of control
dose: 15.0 mg/kg/injection, schedule: Q01DX009 (ip), vehicle: saline + alcohol
  T/C: 116 % of control
dose: 16.8 mg/kg/injection, schedule: Q03HX008 (ip), vehicle: saline + alcohol
  T/C: 114 % of control
dose: 16.9 mg/kg/injection, schedule: Q01DX001 (ip), vehicle: saline + alcohol
  T/C: 103 % of control
dose: 16.9 mg/kg/injection, schedule: Q01DX001 (iv), vehicle: saline + alcohol
  T/C: 103 % of control
dose: 20.0 mg/kg/injection, schedule: Q03HX027 (ip), vehicle: saline + alcohol
  T/C: 162 % of control
dose: 20.0 mg/kg/injection, schedule: Q03HX027 (sc), vehicle: saline + alcohol
  T/C: 108 % of control
dose: 20.0 mg/kg/injection, schedule: Q03HX027 (sc), vehicle: saline
  T/C: 100 % of control
dose: 22.5 mg/kg/injection, schedule: Q04DX003 (ip), vehicle: saline + alcohol
  T/C: 98 % of control
dose: 25.0 mg/kg/injection, schedule: Q01DX009 (ip), vehicle: saline + alcohol
  T/C: 121 % of control and 122 % of control
dose: 27.0 mg/kg/injection, schedule: Q01DX005 (ip), vehicle: saline + alcohol
  T/C: 124 % of control
dose: 27.0 mg/kg/injection, schedule: Q01DX005 (iv), vehicle: saline + alcohol
  T/C: 105 % of control
dose: 30.0 mg/kg/injection, schedule: Q01DX009 (ip), vehicle: saline + alcohol
  T/C: 124 % of control
dose: 30.0 mg/kg/injection, schedule: Q01DX009 (oral), vehicle: saline + alcohol
  T/C: 115 % of control
dose: 33.7 mg/kg/injection, schedule: Q03HX008 (ip), vehicle: saline + alcohol
  T/C: 115 % of control
dose: 33.8 mg/kg/injection, schedule: Q01DX001 (ip), vehicle: saline + alcohol
  T/C: 110 % of control
dose: 33.8 mg/kg/injection, schedule: Q01DX001 (iv), vehicle: saline + alcohol
  T/C: 115 % of control
dose: 40.0 mg/kg/injection, schedule: Q03HX027 (ip), vehicle: saline + alcohol
  T/C: 175 % of control and 176 % of control
dose: 40.0 mg/kg/injection, schedule: Q03HX027 (sc), vehicle: saline + alcohol
  T/C: 98 % of control
dose: 40.0 mg/kg/injection, schedule: Q03HX027 (sc), vehicle: saline
  T/C: 102 % of control
dose: 45.0 mg/kg/injection, schedule: Q04DX003 (ip), vehicle: saline + alcohol
  T/C: 92 % of control
dose: 50.0 mg/kg/injection, schedule: Q01DX009 (ip), vehicle: saline + alcohol
  T/C: 151 % of control
dose: 54.0 mg/kg/injection, schedule: Q01DX005 (ip), vehicle: saline + alcohol
  T/C: 113 % of control
dose: 54.0 mg/kg/injection, schedule: Q01DX005 (iv), vehicle: saline + alcohol
  T/C: 115 % of control
dose: 60.0 mg/kg/injection, schedule: Q01DX009 (oral), vehicle: saline + alcohol
  T/C: 117 % of control
dose: 67.5 mg/kg/injection, schedule: Q01DX001 (ip), vehicle: saline + alcohol
  T/C: 104 % of control
dose: 67.5 mg/kg/injection, schedule: Q01DX001 (iv), vehicle: saline + alcohol
  T/C: 105 % of control
dose: 80.0 mg/kg/injection, schedule: Q03HX027 (sc), vehicle: saline + alcohol
  T/C: 121 % of control
dose: 80.0 mg/kg/injection, schedule: Q03HX027 (sc), vehicle: saline
  T/C: 102 % of control
dose: 90.0 mg/kg/injection, schedule: Q04DX003 (ip), vehicle: saline + alcohol
  T/C: 91 % of control
dose: 240.0 mg/kg/injection, schedule: Q01DX009 (oral), vehicle: saline + alcohol
  T/C: 114 % of control
dose: 36.0 micrograms per hour, schedule: Q#X X216 (sc), vehicle: saline
  T/C: 100 % of control
dose: 72.0 micrograms per hour, schedule: Q#X X216 (sc), vehicle: saline
  T/C: 102 % of control
dose: 144.0 micrograms per hour, schedule: Q#X X216 (sc), vehicle: saline
  T/C: 118 % of control

## COc1cc2cc(c1Cl)N(C)C(=O)C[C@H](OC(=O)[C@H](C)N(C)C(C)=O)[C@]1(C)O[C@H]1[C@H](C)[C@@H]1C[C@@](O)(NC(=O)O1)[C@H](OC)C=C/C=C(\C)C2
dose: 1.0 micrograms/kg/injection, schedule: Q01DX009 (ip), vehicle: saline + alcohol
  T/C: 121 % of control
dose: 2.0 micrograms/kg/injection, schedule: Q01DX005 (iv), vehicle: saline + alcohol
  T/C: 107 % of control
dose: 4.0 micrograms/kg/injection, schedule: Q01DX005 (iv), vehicle: saline + alcohol
  T/C: 106 % of control
dose: 8.0 micrograms/kg/injection, schedule: Q01DX005 (iv), vehicle: saline + alcohol
  T/C: 100 % of control and 106 % of control
dose: 64.0 micrograms/kg/injection, schedule: Q01DX005 (iv), vehicle: saline + alcohol
  T/C: 112 % of control and 113 % of control
dose: 128.0 micrograms/kg/injection, schedule: Q01DX005 (iv), vehicle: saline + alcohol
  T/C: 120 % of control
dose: 256.0 micrograms/kg/injection, schedule: Q01DX005 (iv), vehicle: saline + alcohol
  T/C: 152 % of control

## CSc1nc(N)cc(NC(=O)CCl)n1
dose: 25.0 mg/kg/injection, schedule: Q01DX009 (ip), vehicle: Klucel (hydroxypropylcellulose) (HPC)
  T/C: 102 % of control
dose: 50.0 mg/kg/injection, schedule: Q01DX009 (ip), vehicle: Klucel (hydroxypropylcellulose) (HPC)
  T/C: 100 % of control
dose: 100.0 mg/kg/injection, schedule: Q01DX009 (ip), vehicle: Klucel (hydroxypropylcellulose) (HPC)
  T/C: 92 % of control

## NC(=O)/C=C/c1c[nH]c2nccnc12
dose: 1.56 mg/kg/injection, schedule: Q01DX009 (ip), vehicle: water
  T/C: 86 % of control
dose: 3.12 mg/kg/injection, schedule: Q01DX009 (ip), vehicle: water
  T/C: 93 % of control
dose: 6.25 mg/kg/injection, schedule: Q01DX009 (ip), vehicle: water
  T/C: 95 % of control
dose: 12.5 mg/kg/injection, schedule: Q01DX009 (ip), vehicle: water
  T/C: 102 % of control
dose: 25.0 mg/kg/injection, schedule: Q01DX009 (ip), vehicle: water
  T/C: 108 % of control

## CC(O)C(NC(=O)OC(C)(C)C)C(=O)O (centres undefined)
dose: 25.0 mg/kg/injection, schedule: Q01DX009 (ip), vehicle: saline
  T/C: 86 % of control and 100 % of control
dose: 50.0 mg/kg/injection, schedule: Q01DX009 (ip), vehicle: saline
  T/C: 108 % of control and 106 % of control
dose: 100.0 mg/kg/injection, schedule: Q01DX009 (ip), vehicle: saline
  T/C: 108 % of control and 100 % of control
dose: 200.0 mg/kg/injection, schedule: Q01DX009 (ip), vehicle: saline
  T/C: 95 % of control
